Reference: ChEMBL document CHEMBL5131569, “SAGE-718: A First-in-Class N-Methyl-d-Aspartate Receptor Positive Allosteric Modulator for the Potential Treatment of Cognitive Impairment” (J Med Chem, 2022)

Columns and labels:
[1] = Drug concentration in CD-1 mouse brain at 10 mg/kg, ip administered for 90 mins; type: ADME, organism-based; conditions: read-out: Ct
[2] = target: T1, Potassium/sodium hyperpolarization-activated cyclic nucleotide-gated channel 2 (Homo sapiens, UniProt Q9UL51); experiment: Inhibition of HCN2 (unknown origin) by patch clamp method
T1 sequence (Q9UL51 whole entry): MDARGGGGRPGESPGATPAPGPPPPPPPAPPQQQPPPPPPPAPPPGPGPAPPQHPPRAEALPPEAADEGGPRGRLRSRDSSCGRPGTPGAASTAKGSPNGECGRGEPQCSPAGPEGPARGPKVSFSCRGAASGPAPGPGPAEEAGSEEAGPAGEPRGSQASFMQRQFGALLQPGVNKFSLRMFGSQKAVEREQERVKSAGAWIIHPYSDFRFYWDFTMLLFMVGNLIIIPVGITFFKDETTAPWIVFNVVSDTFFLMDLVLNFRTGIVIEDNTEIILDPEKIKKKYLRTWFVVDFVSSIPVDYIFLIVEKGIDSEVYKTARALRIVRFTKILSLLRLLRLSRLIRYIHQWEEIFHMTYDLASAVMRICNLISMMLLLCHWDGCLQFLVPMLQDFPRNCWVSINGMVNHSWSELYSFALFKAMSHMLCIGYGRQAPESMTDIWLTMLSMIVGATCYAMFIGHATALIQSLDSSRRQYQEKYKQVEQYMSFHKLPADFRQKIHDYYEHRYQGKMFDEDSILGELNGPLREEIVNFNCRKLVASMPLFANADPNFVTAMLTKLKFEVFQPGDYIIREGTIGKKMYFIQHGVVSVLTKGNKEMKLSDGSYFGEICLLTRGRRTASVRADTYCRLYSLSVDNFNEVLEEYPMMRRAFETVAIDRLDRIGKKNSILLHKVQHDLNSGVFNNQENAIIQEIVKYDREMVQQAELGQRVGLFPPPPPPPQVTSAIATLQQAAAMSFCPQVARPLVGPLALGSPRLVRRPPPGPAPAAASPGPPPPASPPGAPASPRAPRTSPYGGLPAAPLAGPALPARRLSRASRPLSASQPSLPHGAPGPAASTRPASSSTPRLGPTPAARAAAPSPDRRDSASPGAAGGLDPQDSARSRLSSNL

Mus musculus [3] = experiment: Reversal of DOI-induced hyperlocomotion in CD-1 mouse assessed as reduction in rearing at 7.5 mg/kg, ip administered 90 mins prior to DOI induction and measured upto 30 mins post DOI treatment (reference value: 59.8 +/- 8.6 Counts); type: functional; conditions: time <= 120 min, 2 h
[4] = Drug concentration in CD-1 mouse plasma at 5 mg/kg, ip administered for 90 mins; type: ADME, organism-based
Cytochrome P450 2C9 = Cytochrome P450 2C9 (Homo sapiens, UniProt P11712); experiment: Inhibition of CYP2C9 (unknown origin); type: ADME
[5] = Plasma protein binding in rat after 15 mins by equilibrium dialysis method; type: ADME, cell-free; conditions: read-out: PPB (converted)
[6] = Plasma protein binding in mouse after 15 mins by equilibrium dialysis method; type: ADME, cell-free; conditions: read-out: PPB (converted)
Mus musculus [7] = experiment: Reversal of DOI-induced hyperlocomotion in CD-1 mouse assessed as reduction in rearing at 3 mg/kg, ip administered 90 mins prior to DOI induction and measured upto 30 mins post DOI treatment (reference value: 59.8 +/- 8.6 Counts); type: functional; conditions: time <= 120 min, 2 h
[8] = Metabolic stability in monkey hepatocytes assessed as clearance at 10 uM measured upto 120 mins by LC-MS/MS analysis; type: ADME, cell-based, Macaca mulatta, Hepatocyte; conditions: rhesus monkey, 2 h
Mus musculus [9] = experiment: Reversal of DOI-induced hyperlocomotion in CD-1 mouse assessed as reduction in rearing at 5 mg/kg, ip administered 90 mins prior to DOI induction and measured upto 30 mins post DOI treatment (reference value: 59.8 +/- 8.6 Counts); type: functional; conditions: time <= 120 min, 2 h
[10] = target: Voltage-gated inwardly rectifying potassium channel KCNH2 (Homo sapiens, UniProt Q12809); experiment: Inhibition of human ERG; type: toxicity
[11] = target: Voltage-dependent L-type calcium channel subunit alpha-1C (Homo sapiens, UniProt Q13936); experiment: Inhibition of CaV1.2 (unknown origin) by patch clamp method
[12] = Drug concentration in CD-1 mouse plasma at 10 mg/kg, ip administered for 90 mins; type: ADME, organism-based
[13] = Clearance in Sprague-Dawley rat by LC-MS/MS analysis; type: ADME; conditions: in vivo
[14] = Inhibition of Kv4.3/KChIP2.2 (unknown origin) by patch clamp method; set-up: species or system Homo sapiens
[15] = target: Sodium channel protein type 5 subunit alpha (Homo sapiens, UniProt Q14524); experiment: Inhibition of NaV1.5 (unknown origin)
[16] = Clearance in Beagle dog by LC-MS/MS analysis; type: ADME, Canis lupus familiaris; conditions: in vivo
[17] = Oral bioavailability in Sprague-Dawley rat by LC-MS/MS analysis; type: ADME, organism-based; conditions: in vivo
[18] = Plasma protein binding in human after 15 mins by equilibrium dialysis method; type: ADME, cell-free; conditions: read-out: PPB (converted)
[19] = Lipophilicity, logD of compound in MeOH at 20 uM by HPLC analysis; type: physicochemical
Mus musculus [20] = experiment: Reversal of DOI-induced hyperlocomotion in CD-1 mouse assessed as reduction in distance travel at 7.5 mg/kg, ip administered 90 mins prior to DOI induction and measured upto 30 mins post DOI treatment (reference value: 7.8 +/- 0.8 meter); type: functional; conditions: time <= 120 min, 2 h
Cytochrome P450 1A2 = target: T2, Cytochrome P450 1A2 (Homo sapiens, UniProt P05177); experiment: Inhibition of CYP1A2 (unknown origin); type: ADME
T2 sequence (P05177 whole entry): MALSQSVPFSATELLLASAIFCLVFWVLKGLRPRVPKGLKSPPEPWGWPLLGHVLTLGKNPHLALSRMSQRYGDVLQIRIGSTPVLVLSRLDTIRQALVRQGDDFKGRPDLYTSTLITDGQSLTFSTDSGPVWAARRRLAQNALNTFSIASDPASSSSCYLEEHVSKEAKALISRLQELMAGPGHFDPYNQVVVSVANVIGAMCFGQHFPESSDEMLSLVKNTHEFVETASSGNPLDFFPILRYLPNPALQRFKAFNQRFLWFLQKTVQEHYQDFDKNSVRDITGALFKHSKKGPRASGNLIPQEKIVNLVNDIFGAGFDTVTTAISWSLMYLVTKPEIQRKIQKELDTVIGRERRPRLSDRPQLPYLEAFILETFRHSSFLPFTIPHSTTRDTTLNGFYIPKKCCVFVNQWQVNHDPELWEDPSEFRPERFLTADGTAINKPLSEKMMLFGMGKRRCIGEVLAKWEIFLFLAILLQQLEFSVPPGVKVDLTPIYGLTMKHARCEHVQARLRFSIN

[21] = target: Ionotropic glutamate receptor NMDA 1/2C (Homo sapiens, UniProt Q05586+Q14957); experiment: Positive allosteric modulation of recombinant human GluN1/GluN2C receptor stably expressed in HEK293 cells assessed as increase in glycine/L-glutamate-induced channel current at -70 mV holding potential by whole cell patch clamp method
[22] = Metabolic stability in human liver microsomes assessed as intrinsic clearance at 10 uM preincubated for 5 mins followed by NADPH addition and measured upto 65 mins by LC-MS/MS analysis; type: ADME, Microsome; conditions: time < 70 min, read-out: CLH

Sequence of Ionotropic glutamate receptor NMDA 1/2C (Q14957 whole entry, other chains not shown): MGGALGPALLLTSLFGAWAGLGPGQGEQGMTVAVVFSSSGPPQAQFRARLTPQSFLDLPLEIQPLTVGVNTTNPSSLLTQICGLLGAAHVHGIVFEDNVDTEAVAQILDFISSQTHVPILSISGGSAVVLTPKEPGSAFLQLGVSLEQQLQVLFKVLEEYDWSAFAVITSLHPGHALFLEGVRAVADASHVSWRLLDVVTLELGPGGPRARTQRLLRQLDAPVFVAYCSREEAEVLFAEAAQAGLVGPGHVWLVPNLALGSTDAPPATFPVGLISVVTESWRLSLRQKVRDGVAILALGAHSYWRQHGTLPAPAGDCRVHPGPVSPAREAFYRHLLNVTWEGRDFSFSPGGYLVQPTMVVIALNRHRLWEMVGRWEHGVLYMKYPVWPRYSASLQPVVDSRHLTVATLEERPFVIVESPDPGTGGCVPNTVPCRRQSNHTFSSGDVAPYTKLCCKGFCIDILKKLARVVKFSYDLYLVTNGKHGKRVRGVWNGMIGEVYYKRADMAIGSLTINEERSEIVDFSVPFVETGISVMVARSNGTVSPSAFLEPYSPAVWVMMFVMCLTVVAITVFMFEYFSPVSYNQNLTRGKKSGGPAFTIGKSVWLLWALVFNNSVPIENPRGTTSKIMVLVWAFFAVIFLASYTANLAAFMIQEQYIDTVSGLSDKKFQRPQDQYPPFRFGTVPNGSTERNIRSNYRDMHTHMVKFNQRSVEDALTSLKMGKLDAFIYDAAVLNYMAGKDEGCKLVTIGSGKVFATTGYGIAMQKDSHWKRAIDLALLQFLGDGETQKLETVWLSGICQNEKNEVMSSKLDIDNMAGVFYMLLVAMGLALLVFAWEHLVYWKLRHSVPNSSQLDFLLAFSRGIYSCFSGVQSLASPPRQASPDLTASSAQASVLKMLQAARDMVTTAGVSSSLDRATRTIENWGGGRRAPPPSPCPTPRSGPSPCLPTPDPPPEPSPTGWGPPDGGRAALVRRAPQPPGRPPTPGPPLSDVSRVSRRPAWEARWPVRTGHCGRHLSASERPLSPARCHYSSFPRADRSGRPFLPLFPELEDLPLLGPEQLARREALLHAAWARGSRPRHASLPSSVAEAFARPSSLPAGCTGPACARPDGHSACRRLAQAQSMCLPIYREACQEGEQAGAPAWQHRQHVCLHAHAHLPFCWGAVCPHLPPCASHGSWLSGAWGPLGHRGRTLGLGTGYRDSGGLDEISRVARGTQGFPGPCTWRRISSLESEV
Sequence of Cytochrome P450 2C9 (P11712 whole entry): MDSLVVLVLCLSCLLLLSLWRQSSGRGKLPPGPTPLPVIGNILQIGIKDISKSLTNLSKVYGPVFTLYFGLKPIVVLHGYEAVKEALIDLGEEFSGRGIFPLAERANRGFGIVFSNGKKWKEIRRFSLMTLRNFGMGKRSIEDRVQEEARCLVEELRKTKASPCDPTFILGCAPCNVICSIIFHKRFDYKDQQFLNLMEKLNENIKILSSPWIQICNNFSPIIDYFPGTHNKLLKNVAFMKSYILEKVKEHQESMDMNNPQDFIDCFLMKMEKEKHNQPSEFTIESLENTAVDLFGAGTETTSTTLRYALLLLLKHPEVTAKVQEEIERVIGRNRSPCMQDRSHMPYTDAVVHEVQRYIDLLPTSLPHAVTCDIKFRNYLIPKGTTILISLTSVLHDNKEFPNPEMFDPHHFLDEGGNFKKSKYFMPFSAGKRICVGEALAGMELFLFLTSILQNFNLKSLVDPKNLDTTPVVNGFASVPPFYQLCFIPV
Sequence of Sodium channel protein type 5 subunit alpha (Q14524 whole entry): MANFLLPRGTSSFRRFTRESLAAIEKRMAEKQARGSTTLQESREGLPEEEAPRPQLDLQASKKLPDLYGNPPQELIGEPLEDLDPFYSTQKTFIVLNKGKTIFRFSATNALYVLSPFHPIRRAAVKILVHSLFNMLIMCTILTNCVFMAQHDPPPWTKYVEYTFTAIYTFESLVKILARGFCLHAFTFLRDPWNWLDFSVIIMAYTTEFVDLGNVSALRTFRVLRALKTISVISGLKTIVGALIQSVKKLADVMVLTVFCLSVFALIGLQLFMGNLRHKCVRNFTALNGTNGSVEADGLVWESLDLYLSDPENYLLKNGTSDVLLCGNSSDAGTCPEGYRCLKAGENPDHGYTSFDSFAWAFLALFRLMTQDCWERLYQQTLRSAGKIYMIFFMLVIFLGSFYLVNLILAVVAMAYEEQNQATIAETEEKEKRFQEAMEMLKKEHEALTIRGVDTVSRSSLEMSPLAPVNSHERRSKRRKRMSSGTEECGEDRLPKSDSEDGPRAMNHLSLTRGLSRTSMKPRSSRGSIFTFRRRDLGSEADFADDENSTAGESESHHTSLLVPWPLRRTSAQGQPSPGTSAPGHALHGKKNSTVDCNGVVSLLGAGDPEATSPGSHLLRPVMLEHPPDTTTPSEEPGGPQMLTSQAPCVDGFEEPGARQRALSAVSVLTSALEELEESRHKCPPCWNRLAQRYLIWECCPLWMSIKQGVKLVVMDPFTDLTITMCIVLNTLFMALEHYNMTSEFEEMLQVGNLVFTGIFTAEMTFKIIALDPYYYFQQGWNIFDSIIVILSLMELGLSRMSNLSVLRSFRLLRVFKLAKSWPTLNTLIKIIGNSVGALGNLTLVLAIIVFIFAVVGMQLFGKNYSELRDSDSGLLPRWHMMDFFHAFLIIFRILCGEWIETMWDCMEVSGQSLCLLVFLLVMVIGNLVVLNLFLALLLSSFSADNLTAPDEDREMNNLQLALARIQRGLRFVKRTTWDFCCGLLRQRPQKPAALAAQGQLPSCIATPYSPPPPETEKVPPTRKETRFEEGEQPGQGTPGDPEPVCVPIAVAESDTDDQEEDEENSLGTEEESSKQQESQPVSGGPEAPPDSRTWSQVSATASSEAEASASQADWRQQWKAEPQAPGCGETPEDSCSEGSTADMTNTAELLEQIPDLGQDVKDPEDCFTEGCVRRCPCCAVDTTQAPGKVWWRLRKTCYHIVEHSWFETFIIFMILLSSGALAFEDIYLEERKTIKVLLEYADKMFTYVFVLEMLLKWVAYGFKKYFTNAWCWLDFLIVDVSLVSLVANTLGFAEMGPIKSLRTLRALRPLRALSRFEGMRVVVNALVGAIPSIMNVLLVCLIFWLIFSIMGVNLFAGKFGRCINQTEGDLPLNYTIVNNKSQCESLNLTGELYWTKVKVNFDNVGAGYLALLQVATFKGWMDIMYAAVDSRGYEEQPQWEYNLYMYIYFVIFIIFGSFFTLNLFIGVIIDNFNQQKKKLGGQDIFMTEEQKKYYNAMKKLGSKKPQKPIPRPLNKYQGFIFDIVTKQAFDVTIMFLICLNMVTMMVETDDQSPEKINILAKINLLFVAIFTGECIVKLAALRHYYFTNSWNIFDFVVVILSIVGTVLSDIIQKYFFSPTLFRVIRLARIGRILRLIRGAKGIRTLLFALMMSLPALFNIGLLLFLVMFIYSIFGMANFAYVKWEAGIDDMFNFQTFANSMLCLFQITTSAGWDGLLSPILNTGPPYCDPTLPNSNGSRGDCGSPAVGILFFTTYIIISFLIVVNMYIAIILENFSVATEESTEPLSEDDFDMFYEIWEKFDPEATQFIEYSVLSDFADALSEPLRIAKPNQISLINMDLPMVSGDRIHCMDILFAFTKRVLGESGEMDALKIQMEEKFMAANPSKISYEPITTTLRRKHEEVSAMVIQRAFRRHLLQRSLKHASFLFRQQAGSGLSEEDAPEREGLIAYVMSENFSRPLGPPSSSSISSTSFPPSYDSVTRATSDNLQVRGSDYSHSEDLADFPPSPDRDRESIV
Sequence of Voltage-gated inwardly rectifying potassium channel KCNH2 (Q12809 whole entry): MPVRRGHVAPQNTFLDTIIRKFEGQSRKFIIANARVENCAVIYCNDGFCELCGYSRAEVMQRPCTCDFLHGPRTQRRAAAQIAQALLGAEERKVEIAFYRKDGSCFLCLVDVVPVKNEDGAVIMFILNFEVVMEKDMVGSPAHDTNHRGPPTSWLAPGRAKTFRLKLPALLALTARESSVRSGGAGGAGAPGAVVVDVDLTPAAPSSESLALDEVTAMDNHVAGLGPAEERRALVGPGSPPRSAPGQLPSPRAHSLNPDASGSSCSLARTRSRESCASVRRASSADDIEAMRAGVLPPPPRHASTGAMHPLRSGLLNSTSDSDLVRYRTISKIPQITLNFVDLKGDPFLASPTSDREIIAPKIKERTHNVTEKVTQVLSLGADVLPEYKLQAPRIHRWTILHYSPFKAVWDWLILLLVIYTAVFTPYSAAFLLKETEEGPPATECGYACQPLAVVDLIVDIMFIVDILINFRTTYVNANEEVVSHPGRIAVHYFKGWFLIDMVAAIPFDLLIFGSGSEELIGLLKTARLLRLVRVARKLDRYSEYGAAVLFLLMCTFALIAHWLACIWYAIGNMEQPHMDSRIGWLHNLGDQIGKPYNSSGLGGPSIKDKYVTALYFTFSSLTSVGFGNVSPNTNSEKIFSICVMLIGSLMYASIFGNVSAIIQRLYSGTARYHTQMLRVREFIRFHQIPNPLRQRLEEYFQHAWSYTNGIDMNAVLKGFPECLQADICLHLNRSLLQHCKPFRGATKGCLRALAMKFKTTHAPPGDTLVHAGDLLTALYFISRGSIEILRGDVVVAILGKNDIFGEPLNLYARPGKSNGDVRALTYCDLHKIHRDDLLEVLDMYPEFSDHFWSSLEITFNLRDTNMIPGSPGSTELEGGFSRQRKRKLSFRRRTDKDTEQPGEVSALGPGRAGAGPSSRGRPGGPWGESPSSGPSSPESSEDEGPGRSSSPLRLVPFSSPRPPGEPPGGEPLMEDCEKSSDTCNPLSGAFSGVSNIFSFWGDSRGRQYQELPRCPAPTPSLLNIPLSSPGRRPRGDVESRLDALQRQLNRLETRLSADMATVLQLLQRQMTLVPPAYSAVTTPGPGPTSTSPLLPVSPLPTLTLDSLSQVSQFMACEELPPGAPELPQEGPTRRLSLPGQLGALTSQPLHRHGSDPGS

concentration at 1.5 h [1]: 1610 ng/g | IC50 [2]: > 30 µM | concentration at 1.5 h [4]: 1550 ng/mL | IC50 (Cytochrome P450 2C9): > 100 µM | fraction unbound at 0.25 h [5]: 0.022 | fraction unbound at 0.25 h [6]: 0.014 | CLH [8]: 18.3 mL/min/kg | concentration at 1.5 h [12]: 3210 ng/mL | clearance [13]: 10 mL/min/kg | IC50 [14]: > 30 µM | clearance [16]: 3.33 mL/min/kg | bioavailability [17]: 28% | fraction unbound at 0.25 h [18]: 0.015 | logD at 20 µM [19]: 6.2 | IC50 (Cytochrome P450 1A2): > 100 µM | EC50 [21]: 0.15 µM | microsomal CLint at 10 µM [22]: 10 µL/min/mg
Compound: C[C@H](CC[C@](C)(O)C(F)(F)F)[C@H]1CC[C@H]2[C@@H]3CC=C4C[C@@](C)(O)CC[C@]4(C)[C@H]3CC[C@]12C [DALZANEMDOR]
Activity (Mus musculus [3]): 6.1 Counts | Activity (Mus musculus [7]): 52.9 Counts | Activity (Mus musculus [9]): 27.1 Counts | IC50 [10]: > 30 µM | IC50 [11]: > 30 µM | IC50 [15]: > 30 µM | Activity (Mus musculus [20]): 0.4 m
